Experimental data taken from patent US8501809B2, “Inhibitors of α4 mediated cell adhesion” (Mitsubishi Tanabe Pharma Corporation, priority 2000, dated 2013).

Compared with `CCOCc1cc(OC)c(-c2ccc(C[C@H](NC(=O)c3c(Cl)cccc3Cl)C(=O)OCC)cc2)c(OC)c1` [Example 1, N-(2,6-Dichlorobenzoyl)-4-(2,6-dimethoxy-4-ethoxymethylphenyl)-L-phenylalanine ethyl ester], `CCOCc1cc(OC)c(-c2ccc(C[C@H](NC(=O)c3c(Cl)cccc3Cl)C(=O)O)cc2)c(OC)c1` [Example 3, N-(2,6-Dichlorobenzoyl)-4-(2,6-dimethoxy-4-ethoxymethylphenyl)-L-phenylalanine] is higher in melting point: 91 to 94 °C for the first, 196 to 198 °C for the second.

Compared with `COCc1cc(OC)c(-c2ccc(C[C@H](NC(=O)c3c(Cl)cccc3Cl)C(=O)O)cc2)c(OC)c1` [Example 5, N-(2,6-Dichlorobenzoyl)-4-(2,6-dimethoxy-4-methoxymethylphenyl)-L-phenylalanine], `COCc1cc(OC)c(-c2ccc(C[C@H](NC(=O)c3c(F)cccc3Cl)C(=O)O)cc2)c(OC)c1` [Example 23, N-(2-Chloro-6-fluorobenzoyl)-4-(2,6-dimethoxy-4-methoxymethylphenyl)-L-phenylalanine] is lower in melting point: 232 to 235 °C for the first, 170 to 175 °C for the second.

`CCCOCc1cc(OC)c(-c2ccc(C[C@H](NC(=O)c3c(Cl)cccc3Cl)C(=O)O)cc2)c(OC)c1` [Example 7, N-(2,6-Dichlorobenzoyl)-4-(2,6-dimethoxy-4-n-propoxymethylphenyl)-L-phenylalanine] and `CCOCc1cc(OC)c(-c2ccc(C[C@H](NC(=O)c3c(F)cccc3Cl)C(=O)O)cc2)c(OC)c1` [Example 20, N-(2-Chloro-6-fluorobenzoyl)-4-(2,6-dimethoxy-4-ethoxymethylphenyl)-L-phenylalanine] cannot be ordered by melting point: 183 to 186 °C for the first, 182 to 184 °C for the second.

First: CCOCc1cc(OC)c(-c2ccc(C[C@H](NC(=O)c3c(F)cccc3F)C(=O)OCC)cc2)c(OC)c1 [Example 10, N-(2,6-Difluorobenzoyl)-4-(2,6-dimethoxy-4-ethoxymethylphenyl)-L-phenylalanine ethyl ester]
Second: CCOCCc1cc(OC)c(-c2ccc(C[C@H](NC(=O)c3c(F)cccc3F)C(=O)O)cc2)c(OC)c1 [Example 31, N-(2,6-Difluorobenzoyl)-4-[2,6-dimethoxy-4-(2-ethoxyethyl)phenyl]-L-phenylalanine]
The melting point of the first is higher: 87 to 89 °C for the first, 63 to 70 °C for the second.
